Target: T1, trypsin-activated recombinant human renin (Homo sapiens, UniProt P00797)
T1 sequence (P00797 67-406): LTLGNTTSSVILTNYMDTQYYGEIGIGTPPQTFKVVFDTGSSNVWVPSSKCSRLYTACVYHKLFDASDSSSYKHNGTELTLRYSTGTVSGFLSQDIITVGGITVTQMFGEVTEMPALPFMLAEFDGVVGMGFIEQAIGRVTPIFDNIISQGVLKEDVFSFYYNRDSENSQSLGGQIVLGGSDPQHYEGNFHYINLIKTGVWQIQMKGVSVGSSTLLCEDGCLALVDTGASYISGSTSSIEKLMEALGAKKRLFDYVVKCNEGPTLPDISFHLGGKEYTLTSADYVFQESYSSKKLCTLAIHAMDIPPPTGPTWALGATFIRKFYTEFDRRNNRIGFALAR
Assay: In vitro renin assay, fluorescently labeled peptide, LJL Acquest, results as pIC50 (Example 22)
Format: biochemical
Conditions: found not to demonstrate inhibition at concentrations below the stated value
Protocol: The potency of renin inhibitors was measured using an in vitro renin assay. In this assay, renin-catalyzed proteolysis of a fluorescently labeled peptide converts the peptide from a weakly fluorescent to a strongly fluorescent molecule. The following test protocol was used. Substrate solution (5 μl; 2 μM Arg-Glu-Lys(5-Fam)-Ile-His-Pro-Phe-His-Leu-Val-Ile-His-Thr-Lys(5,6 Tamra)-Arg-CONH2 in 50 mM Hepes, 125 mM NaCl, 0.1% CHAPS, pH 7.4) then trypsin-activated recombinant human renin (Scott, Martin J. et. al. Protein Expression and Purification 2007, 52(1), 104-116; 5 μL; 600 pM renin in 50 mM Hepes, 125 mM NaCl, 0.1% CHAPS, pH 7.4) were added sequentially to a black Greiner low volume 384-well plate (cat.#784076) pre-stamped with a 100 nl DMSO solution of compound at the desired concentration. The assay plates were incubated at room temperature for 2 hours with a cover plate then quenched by the addition of a stop solution (2 μL; 5 μM of Bachem C-3195 in 50 mM Hepes, 125 mM NaCl, 0.1% CHAPS, pH 7.4, 10% DMSO). The assay plates were read on an LJL Acquest using a 485 nm excitation filter, a 530 nm emission filter, and a 505 nm dichroic filter. Compounds were initially prepared in neat DMSO at a concentration of 10 mM. For inhibition curves, compounds were diluted using a three fold serial dilution and tested at 11 concentrations (e.g. 50 μM-0.8 nM or 25 μM-0.42 nM or 2.5 μM to […]). Curves were analyzed using ActivityBase and XLfit, and results were expressed as pIC50 values.

IC50	SMILES
≥ 50 µM	CNCc1ccc(C(=O)N2CCCC(C(O)(CCCCOC)c3cccc(Cl)c3Cc3cccc(C)c3)C2)cc1 (centres unmarked) [1-{3-chloro-2-[(3-methylphenyl)methyl]phenyl}-1-[1-({4-[(methylamino)methyl]phenyl}carbonyl)-3-piperidinyl]-5-(methyloxy)-1-pentanol]
≥ 50 µM	CNCc1ccc(C(=O)N2CCOC(C(O)(CCCCOC)c3cccc(Cl)c3-c3nc(C(C)C)c4ccccc4n3)C2)cc1 (centres unmarked) [1-{3-chloro-2-[4-(1-methylethyl)-2-quinazolinyl]phenyl}-1-[4-({4-[(methylamino)methyl]phenyl}carbonyl)-2-morpholinyl]-5-(methyloxy)-1-pentanol]
≥ 50 µM	COC(=O)NCCCC(O)(c1cccc(F)c1-c1cc(C)cc(OC)c1)C1CN(C(=O)C2CCC(N)C2)CCO1 (centres unmarked) [methyl {4-(4-{[3-aminocyclopentyl]carbonyl}-2-morpholinyl)-4-[6-fluoro-3′-methyl-5′-(methyloxy)-2-biphenylyl]-4-hydroxybutyl}carbamate]
≥ 50 µM	CCc1cccc(-c2c(Cl)cccc2C(OCCNC(=O)OC)C2CN(C(=O)c3ccc(CNC)cc3)CCO2)c1 (centres unmarked) [methyl [2-({(6-chloro-3′-ethyl-2-biphenylyl)[4-({4-[(methylamino)methyl]phenyl}carbonyl)-2-morpholinyl]methyl}oxy)ethyl]carbamate]
≥ 50 µM	CNCc1ccc(C(=O)N2CCCC(C(O)(CCCNC(=O)OC)c3cccc(F)c3-c3cccs3)C2)cc1 (centres unmarked) [methyl {4-[3-fluoro-2-(2-thienyl)phenyl]-4-hydroxy-4-[1-({4-[(methylamino)methyl]phenyl}carbonyl)-3-piperidinyl]butyl}carbamate]
≥ 50 µM	COCCCCC(O)(c1cccc(Cl)c1Cc1ccccc1C)C1CCCN(C(=O)c2ccc(CN)cc2)C1 (centres unmarked) [1-(1-{[4-(aminomethyl)phenyl]carbonyl}-3-piperidinyl)-1-{3-chloro-2-[(2-methylphenyl)methyl]phenyl}-5-(methyloxy)-1-pentanol]
≥ 50 µM	COCCCCC(O)(c1ccccc1Oc1c(C)cccc1C)C1CCCN(C(=O)c2ccc(CN)cc2)C1 (centres unmarked) [1-(1-{[4-(aminomethyl)phenyl]carbonyl}-3-piperidinyl)-1-{2-[(2,6-dimethylphenyl)oxy]phenyl}-5-(methyloxy)-1-pentanol]
≥ 50 µM	CNCc1ccc(C(=O)N2CCOC(C(O)(CCCNC(=O)OC)c3cccc(F)c3-c3cc(C)cc(OC)c3)C2)cc1 (centres unmarked)

From patent US20100179109A1, “RENIN INHIBITORS” (priority 2007, published 2010)
